US8658801B2, “Pesticides containing a bicyclic bisamide structure” (Syngenta Crop Protection, LLC, priority 2006, dated 2014)

How the values were obtained:
[1] = test system: Spodoptera littoralis (Egyptian Cotton Leafworm); assay: Example B1: activity against Spodoptera littoralis, larvicide, feeding/residual contact, preventive (cotton leaf discs); format: in vivo; conditions: foliar, 72 h, 3 days after treatment, L1 larvae
[2] = test system: Heliothis virescens (Tobacco Budworm); assay: Example B2: activity against Heliothis virescens, ovo-larvicide, feeding/contact, curative; format: in vivo; conditions: 96 h, 4 days incubation, eggs 0-24 h old
Procedure: Activity Against Heliothis virescens (Tobacco Budworm)
(Ovo-Larvicide, Feeding/Contact Activity, Curative)
Eggs (0-24 h old) are placed in 24-well microtiter plate on artificial diet and treated with test solutions by pipetting. After an incubation period of 4 days, samples are checked for egg mortality, larval mortality, and growth regulation.

[3] = test system: Plutella xylostella (Diamond Back Moth); assay: Example B3: Plutella xylostella, larvicide, feeding/residual contact, preventive (artificial diet MTP); format: in vivo; conditions: 120 h, 5 days incubation, L2 larvae
Procedure, shortened: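 Artificial diet in multiwell plates treated with test solution, dried, then infested with 10–15 L2 larvae per well. After 5 days, larval mortality, antifeedant effect and growth regulation were scored.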

[4] = test system: Diabrotica balteata (Corn Root Worm); assay: Example B4: Diabrotica balteata, larvicide, feeding/residual contact, preventive; format: in vivo; conditions: 120 h, 5 days incubation, L2 larvae
Procedure, shortened: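 Artificial diet treated with test solution, dried, then infested with 6-10 L2 larvae per well. Larval mortality, antifeedant effect and growth regulation checked after 5 days of incubation.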

[5] = test system: Cydia pomonella (Codling Moth); assay: Example B8: activity against Cydia pomonella (paraffin-coated diet cubes); format: in vivo; conditions: 336 h, 14 days incubation at 26° C.
Procedure: Activity Against Cydia pomonella (Codling Moth)
Standard Cydia diet cubes (1.5 cm width) are pierced with a tooth-pick and are immersed in liquid paraffin (ca. 80° C.). After the paraffin coat has hardened, an aqueous emulsion containing 400 ppm of active ingredient is applied using a De Vilbis sprayer (25 ml, 1 bar). After the spray coating has dried, the cubes are put into plastic containers which are then populated with two freshly hatched Cydia pomonella (1st instar). The containers are then closed with a plastic cap. After 14 days incubation at 26° C. and 40-60% relative humidity, the survival rate of the caterpillars as well as their growth regulation is determined. In this test, compounds listed in Table P above show good activity. In particular compounds P.10, P.11, P.12, P.18, P.19, P.20, P.29, P.30, P.31, P.32, P.33, P.34, P.35, P.37, P.38, P.39, P.42, and P.43 show an activity of over 80% at a concentration of 400 ppm.

[6] = test system: Frankliniella occidentalis (Western Flower Thrips); assay: Example B9: activity against Frankliniella occidentalis (bean leaf discs or bean plants); format: in vivo; conditions: foliar, 6 days (leaf discs) or 14 days (plants) after infestation
Procedure: Activity Against Frankliniella occidentalis (Western Flower Thrips)
Bean leaf discs on agar in petri dishes or bean plants in a spray chamber are treated with diluted test solutions. After drying leaf discs are cut and placed in plastic cups on the surface of an agar layer and infested with mixed population. 6 days (leaf discs) or 14 days (plants) after the infestation, samples are checked for reduction of treated population and compared to the non treated population.

[7] = test system: Myzus persicae (Green Peach Aphid); assay: Example B5: activity against Myzus persicae, mixed population, feeding/residual contact, preventive (sunflower leaf discs); conditions: foliar, 144 h, read-out: activity
[8] = test system: Thrips tabaci (Onion Thrips); assay: Example B7: activity against Thrips tabaci, mixed population, feeding/residual contact, preventive; conditions: 144 h, read-out: activity
[9] = test system: Myzus persicae (Green Peach Aphid); assay: Example B6: activity against Myzus persicae, mixed population, systemic/feeding, curative (pea seedling roots); conditions: 144 h, read-out: activity
[10] = test system: Aphis craccivora (Pea Aphid); assay: Example B11: activity against Aphis craccivora, mixed population, systemic/feeding; format: in vivo; conditions: 144 h, 6 days, roots in test solution (systemic)
Excerpt: Activity Against Aphis craccivora (Pea Aphid)
(§1) (Mixed Population, Systemic/Feeding)
(§2) 6 days later, samples are checked for mortality.

[11] = test system: Aphis aossypii (Cotton Aphid); assay: Example B13: activity against cotton aphid, mixed population, systemic/feeding; format: in vivo; conditions: 144 h, 6 days, roots in test solution (systemic)
Excerpt: Activity Against Aphis aossypii (Cotton Aphid)
as §1, §2

Measured: pest or weed control at 400 ppm

O=C(NCC1CC1)c1c(NC(=O)c2cc(C(F)(F)F)nn2-c2ncccc2Cl)c(Cl)cc2cn[nH]c12 [P.11]
not listed: [8] | [9] | [10] | [11]
> 80%: all other assays above

O=C(NC1(C2CC2)CC1)c1c(NC(=O)c2cc(C(F)(F)F)nn2-c2ncccc2Cl)c(Cl)cc2cn[nH]c12 [P.12]
not listed: [10] | [11]
> 80%: all other assays above

O=C(NC1(C2CC2)CC1)c1c(NC(=O)c2cc(C(F)(F)F)nn2-c2ncccc2Cl)c(Br)cc2cn[nH]c12 [P.18]
not listed: [9] | [10] | [11]
> 80%: all other assays above

O=C(NCC1CC1)c1c(NC(=O)c2cc(C(F)(F)F)nn2-c2ncccc2Cl)c(Br)cc2cn[nH]c12 [P.19]
not listed: [8] | [10] | [11]
> 80%: all other assays above

CNC(=O)c1c(NC(=O)c2cc(C(F)(F)F)nn2-c2ncccc2Cl)c(Cl)cc2cn[nH]c12 [P.29]
not listed: [6] | [10] | [11]
> 80%: all other assays above

CSCC(C)(C)NC(=O)c1c(NC(=O)c2cc(C(F)(F)F)nn2-c2ncccc2Cl)c(Br)cc2cn[nH]c12 [P.33]
not listed: [11]
> 80%: all other assays above

CC(C)(CS(C)(=O)=O)NC(=O)c1c(NC(=O)c2cc(C(F)(F)F)nn2-c2ncccc2Cl)c(Br)cc2cn[nH]c12 [P.34]
not listed: [10] | [11]
> 80%: all other assays above

COc1cc(C(=O)Nc2c(Br)cc3cn[nH]c3c2C(=O)NC(C)C)n(-c2ncccc2Cl)n1 [P.35]
not listed: [10] | [11]
> 80%: all other assays above

CCNC(=O)c1c(NC(=O)c2cc(Cl)nn2-c2ncccc2Cl)c(Br)cc2cn[nH]c12 [P.37]
not listed: [6] | [10] | [11]
> 80%: all other assays above

O=C(NC1(C2CC2)CC1)c1c(NC(=O)c2cc(C(F)F)nn2-c2ncccc2Cl)c(Cl)cc2cn[nH]c12 [P.38]
not listed: [8] | [9] | [10] | [11]
> 80%: all other assays above

Cc1cc2cn[nH]c2c(C(=O)NC(C)C)c1NC(=O)c1cc(C(F)F)nn1-c1ncccc1Cl [P.56, 6-{[2-(3-chloro-pyridin-2-yl)-5-difluoromethyl-2H-pyrazole-3-carbonyl]-amino}-5-methyl-1H-indazole-7-carboxylic acid isopropylamide]
not listed: [4] | [5]
> 80%: all other assays above

COc1cc(C(=O)Nc2c(Cl)cc3cn[nH]c3c2C(=O)NC(C)(C)CS(C)(=O)=O)n(-c2ncccc2Cl)n1 [P.60]
not listed: [4] | [5] | [8]
> 80%: all other assays above

COc1cc(C(=O)Nc2c(Cl)cc3cn[nH]c3c2C(=O)NC2(C)CS(=O)(=O)C2)n(-c2ncccc2Cl)n1 [P.61, 5-chloro-6-{[2-(3-chloro-pyridin-2-yl)-5-methoxy-2H-pyrazole-3-carbonyl]-amino}-1H-indazole-7-carboxylic acid (3-methyl-1,1-dioxo-1lambda*6*-thietan-3-yl)-amide]
not listed: [4] | [5] | [8]
> 80%: all other assays above
